29 molecules from ChEMBL document CHEMBL1806385, “Discovery of potent, soluble and orally active TRPV1 antagonists. Structure-activity relationships of a series of isoxazoles” (Bioorg Med Chem Lett, 2011) can be followed below.

In brackets after ≈: the same amount, converted by molar mass.

A short description of data set [1]: Intrinsic clearance in rat liver microsomes. Format: ADME, Microsome.
The nature of data set [2]: Plasma protein binding in Wistar rat. Format: ADME, cell-free. The settings on record: read-out: PPB (converted).
Data set [3] is described as follows: Intrinsic clearance in human liver microsomes. Format: ADME, Microsome.
The target of data set [4] is Transient receptor potential cation channel subfamily V member 1 (Homo sapiens, UniProt Q8NER1).
Description: Antagonist activity at human TRPV1 expressed in CHO cells assessed as inhibition of calcium flux by FLIPR assay
The nature of data set [5]: Plasma protein binding in human. Type of data set: ADME, cell-free. The settings on record: read-out: PPB (converted).
Data set [6] in a line: physchem. The settings on record: phosphate buffered saline, pH 7.4.
Description: Intrinsic solubility of the compound in phosphate buffered saline at pH 7.4 by shake-flask method
Data set [7] relates to Rattus norvegicus. The data set can be described thus: Antihyperalgesic activity in po dosed rat capsaicin hargreaves model assessed as reversal of capsaicin-induced thermal hyperalgesia measured by paw withdrawal latency administered 2 hrs before capsaicin challenge. Type of data set: functional.
Data set [8] is described as follows: Intrinsic clearance in rat hepatocytes assessed per 10^6 cells. Type of data set: ADME, cell-based, Liver, Hepatocyte.
Data set [9] in a line: AUClast in po dosed rat. Format: ADME, organism-based. Set-up: route oral, time 0 - last. The note with it: plasma.
Data set [10] can be described thus: Intrinsic clearance in human hepatocytes assessed per 10^6 cells. Format: ADME, cell-based, Liver, Hepatocyte.

Chain of Transient receptor potential cation channel subfamily V member 1 (Q8NER1 whole entry): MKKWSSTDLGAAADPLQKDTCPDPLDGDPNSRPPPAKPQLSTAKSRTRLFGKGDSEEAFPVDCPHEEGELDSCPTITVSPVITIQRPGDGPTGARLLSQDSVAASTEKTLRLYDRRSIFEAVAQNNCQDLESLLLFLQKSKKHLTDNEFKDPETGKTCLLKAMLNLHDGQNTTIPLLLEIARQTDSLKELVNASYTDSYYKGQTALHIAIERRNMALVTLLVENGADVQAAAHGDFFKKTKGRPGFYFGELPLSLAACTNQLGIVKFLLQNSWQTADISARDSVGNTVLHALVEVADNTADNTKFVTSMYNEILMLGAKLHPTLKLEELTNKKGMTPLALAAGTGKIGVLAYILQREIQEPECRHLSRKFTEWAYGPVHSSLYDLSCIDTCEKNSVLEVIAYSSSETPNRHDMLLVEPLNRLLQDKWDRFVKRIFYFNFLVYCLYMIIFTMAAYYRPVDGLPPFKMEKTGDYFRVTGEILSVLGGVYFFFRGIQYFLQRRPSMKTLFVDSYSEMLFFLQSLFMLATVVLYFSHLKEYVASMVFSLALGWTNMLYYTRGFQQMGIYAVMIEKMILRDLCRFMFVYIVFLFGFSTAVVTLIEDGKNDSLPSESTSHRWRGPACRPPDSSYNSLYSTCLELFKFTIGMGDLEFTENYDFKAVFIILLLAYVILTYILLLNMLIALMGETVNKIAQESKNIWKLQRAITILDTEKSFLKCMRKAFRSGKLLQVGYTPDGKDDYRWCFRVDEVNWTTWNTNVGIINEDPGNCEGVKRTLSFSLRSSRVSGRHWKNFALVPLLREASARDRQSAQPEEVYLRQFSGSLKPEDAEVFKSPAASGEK

Consider `O=C(N[C@@H]1CCC[C@H](O)C1)c1noc(-c2ccc(C(F)(F)F)cc2)c1Cl`, for which the microsomal CLint in data set [1] and in [3] was below 12 µL/min/mg throughout. The fraction unbound in data set [2] is 0.007; in data set [5] it was 0.01. In [4], this molecule had an IC50 of 0.501 nM. In [6], this molecule registered a solubility (thermodynamic) below 1 µg/mL.

`O=C(N[C@@H]1CCC[C@H](O)C1)c1noc(-c2ccc(F)cc2)c1Cl` gave an IC50 in [4] of 50.1 nM. For the same molecule, in data set [6], the thermodynamic solubility stood at 38 µg/mL (≈ 112 µM).

With `CC(C)NCc1c(C(=O)N[C@@H]2CCC[C@H](O)C2)noc1-c1ccc(C(F)(F)F)cc1`, the MED in data set [7] came out at 30 µmol/kg. The hepatocyte CLint in data set [8] and in data set [10] was below 6 µL/min/1e6 cells throughout. The same molecule came in with an AUC(0-t) in data set [9] of 2730 ng·h/mL.

Molecule `O=C(N[C@@H]1CCC[C@H](O)C1)c1noc(-c2ccc(C(F)(F)F)c(F)c2)c1Cl` had an IC50 in [4] of 0.631 nM. The thermodynamic solubility in [6] was below 1 µg/mL.

Take `O=C(N[C@@H]1CCC[C@H](O)C1)c1noc(-c2ccc(Cl)cc2)c1Cl`: in data set [4], half-maximal inhibition (IC50) was put at 5.01 nM. Moreover, in data set [6], the solubility (thermodynamic) worked out at 3 µg/mL (≈ 8.45 µM).

In the case of `O=C(N[C@@H]1CCC[C@H](O)C1)c1noc(-c2ccc(Cl)c(F)c2)c1Cl`, half-maximal inhibition in data set [4] (IC50) was put at 0.631 nM. This molecule showed a solubility (thermodynamic) in data set [6] of 2 µg/mL (≈ 5.36 µM).

In [4], `Cc1c(C(=O)N[C@@H]2CCC[C@H](O)C2)noc1-c1ccc(C(F)(F)F)c(F)c1` gave an IC50 of 2 nM. The molecule further registered a thermodynamic solubility in data set [6] of 4 µg/mL (≈ 10.4 µM).

In the case of `CCOc1cc(Cl)ccc1-c1onc(C(=O)N[C@@H]2CCC[C@H](O)C2)c1C`, the IC50 in data set [4] is 12.6 nM. This molecule also yielded a solubility (thermodynamic) in data set [6] of 27 µg/mL (≈ 71.3 µM).

As to `CCOc1cc(Cl)ccc1-c1onc(C(=O)NC2CCC(O)CC2)c1C` (stereo not drawn), the IC50 in data set [4] was 200 nM. Also, the thermodynamic solubility in [6] is 28 µg/mL (≈ 73.9 µM).

The molecule `CCOc1cc(Cl)ccc1-c1onc(C(=O)NC2CCOCC2)c1C` had an IC50 in data set [4] of 12.6 nM. The molecule also had a solubility (thermodynamic) in data set [6] below 1 µg/mL.

With `O=C(N[C@@H]1CCC[C@H](O)C1)c1onc(-c2ccc(Cl)c(F)c2)c1Cl`, inhibition in [4] was half-maximal at 3.16 nM (IC50). In addition, in data set [6], the solubility (thermodynamic) came out at 11 µg/mL (≈ 29.5 µM).

In turn, `O=C(N[C@@H]1CCC[C@H](O)C1)c1onc(-c2ccc(F)cc2)c1Cl` had an IC50 in [4] of 794 nM. This molecule returned a thermodynamic solubility in [6] of 47 µg/mL (≈ 139 µM).

For the molecule `O=C(N[C@@H]1CCC[C@H](O)C1)c1noc(-c2ccc(C(F)(F)F)cc2)c1CO`, the microsomal CLint in [1] is 27 µL/min/mg; in data set [3], below 12 µL/min/mg. Also, the values for the fraction unbound in data set [2] and in [5] were 0.091 and 0.081, respectively. The same molecule showed an IC50 in data set [4] of 79.4 nM. Also, the solubility (thermodynamic) in data set [6] was found to be 73 µg/mL (≈ 190 µM).

In the case of `O=C(NC1CCC(O)CC1)c1noc(-c2ccc(C(F)(F)F)cc2)c1CO` (stereo not drawn), the IC50 in data set [4] is 1580 nM. The solubility (thermodynamic) in data set [6] worked out at 70 µg/mL (≈ 182 µM).

Turning to `CC[C@H](CO)NC(=O)c1noc(-c2ccc(C(F)(F)F)cc2)c1CO`, in data set [4], the IC50 is 1580 nM. In [6], this molecule gave a solubility (thermodynamic) of 66 µg/mL (≈ 184 µM).

Molecule `O=C(NC1CCOCC1)c1noc(-c2ccc(C(F)(F)F)cc2)c1CO` had an IC50 in data set [4] of 3160 nM. For the same molecule, the solubility (thermodynamic) in data set [6] turned out to be 35 µg/mL (≈ 94.5 µM).

Consider `CC(C)[C@H](C)NC(=O)c1noc(-c2ccc(C(F)(F)F)cc2)c1CO`, for which, in data set [4], the IC50 was 126 nM. This molecule also displayed a solubility (thermodynamic) in data set [6] of 1.5 µg/mL (≈ 4.21 µM).

Take `O=C(NC1CCCC1)c1noc(-c2ccc(C(F)(F)F)cc2)c1CO`: the IC50 in data set [4] was 158 nM. In [6], the thermodynamic solubility stood at 1 µg/mL (≈ 2.82 µM).

In data set [4], `CC(O)c1c(C(=O)NC2CCCC2)noc1-c1ccc(C(F)(F)F)cc1` (stereo not drawn) gave an IC50 of 1000 nM. For the same molecule, the solubility (thermodynamic) in data set [6] was below 1 µg/mL.

In data set [4], `CC(C)(O)c1c(C(=O)NC2CCCC2)noc1-c1ccc(C(F)(F)F)cc1` showed an IC50 of 5010 nM. The solubility (thermodynamic) in [6] was below 1 µg/mL.

Consider `CC(C)[C@H](C)NC(=O)c1noc(-c2ccc(C(F)(F)F)c(F)c2)c1CO`, for which half-maximal inhibition in data set [4] (IC50) required 20 nM. In addition, the solubility (thermodynamic) in data set [6] amounted to 1.4 µg/mL (≈ 3.74 µM).

For the molecule `O=C(NC1CCCC1)c1noc(-c2ccc(C(F)(F)F)c(F)c2)c1CO`, the IC50 in data set [4] is 39.8 nM. In [6], this molecule came in with a solubility (thermodynamic) of 73 µg/mL (≈ 196 µM).

As for `CC[C@H](CO)NC(=O)c1noc(-c2ccc(C(F)(F)F)c(F)c2)c1CO`, the midpoint of inhibition in [4], the IC50, lay at 158 nM. The same molecule had a solubility (thermodynamic) in [6] of 31 µg/mL (≈ 82.4 µM).

`CCNC(=O)c1c(C(=O)NC2CCCC2)noc1-c1ccc(C(F)(F)F)cc1` had an IC50 in data set [4] of 5010 nM. Further, the solubility (thermodynamic) in data set [6] is 1.6 µg/mL (≈ 4.05 µM).

`CN(C)C(=O)c1c(C(=O)NC2CCCC2)noc1-c1ccc(C(F)(F)F)cc1` showed an IC50 in [4] of 2000 nM. Further, the solubility (thermodynamic) in data set [6] is below 1 µg/mL.

`O=C(NC1CCCC1)c1noc(-c2ccc(C(F)(F)F)cc2)c1C(=O)O` had an IC50 in [4] of 1580 nM. The same molecule showed a solubility (thermodynamic) in [6] of 72 µg/mL (≈ 195 µM).

In the case of `CC(C)NCc1c(C(=O)N[C@@H](C)C(C)C)noc1-c1ccc(C(F)(F)F)cc1`, the IC50 in [4] was 63.1 nM. For the same molecule, the solubility (thermodynamic) in data set [6] stood at 4 µg/mL (≈ 10.1 µM).

With `CC(C)NCc1c(C(=O)NC2CCCC2)noc1-c1ccc(C(F)(F)F)cc1`, the IC50 in [4] was 316 nM. In addition, the solubility (thermodynamic) in [6] amounted to 13 µg/mL (≈ 32.9 µM).

The molecule `CC(C)NCc1c(C(=O)N[C@H](C)C(C)C)noc1-c1ccc(C(F)(F)F)cc1` had an IC50 in data set [4] of 794 nM. Besides, the solubility (thermodynamic) in data set [6] was determined as 12 µg/mL (≈ 30.2 µM).

One may read the microsomal CLint as the capacity of the preparation to metabolise the compound, expressed as a volume cleared per time. High values mean faster metabolism, low ones greater metabolic stability. By IC50 is commonly meant the concentration needed to halve the response being measured. Read a high IC50 as lower potency. As a reminder, the solubility (thermodynamic) is the concentration in solution at equilibrium with solid. Broadly, the hepatocyte CLint is the rate of metabolic loss divided by the concentration. Read a high hepatocyte CLint as rapid turnover. The term AUC(0-t) denotes exposure summed from dosing to a finite time, without extrapolation to infinity. A higher AUC(0-t) goes with more exposure.
